# Assay results from patent US9139523B2, “5-HT2B receptor antagonists” (Janssen Pharmaceutica, NV, priority 2010, dated 2015).
# Tests used:
# 5HT1A = biological target: T1, 5HT1A (Homo sapiens, UniProt P08908); assay: Competitive radioligand binding, 5HT1A; conditions: HEK293 membranes, 3H-8-OH-DPAT 0.5 nM; read-out: pIC50 5HT1A (converted)
# T1 construct: expressed in transfected cells; host or cells: HEK293 (membrane fraction)
# T1 sequence (P08908 1-422): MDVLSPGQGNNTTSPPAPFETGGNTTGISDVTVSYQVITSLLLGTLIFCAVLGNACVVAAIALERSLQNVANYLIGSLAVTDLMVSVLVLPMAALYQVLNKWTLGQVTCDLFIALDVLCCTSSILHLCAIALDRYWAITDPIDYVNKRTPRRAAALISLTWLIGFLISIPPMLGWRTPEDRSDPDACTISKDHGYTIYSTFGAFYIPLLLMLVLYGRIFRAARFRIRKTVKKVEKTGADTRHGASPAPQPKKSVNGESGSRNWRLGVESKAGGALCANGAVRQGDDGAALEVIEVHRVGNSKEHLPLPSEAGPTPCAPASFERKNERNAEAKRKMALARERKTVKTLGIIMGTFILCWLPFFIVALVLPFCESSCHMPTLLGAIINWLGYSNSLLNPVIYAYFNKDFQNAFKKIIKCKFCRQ
# Procedure: (§1) Competitive radioligand binding assays were used to determine the affinity of the test compounds for a particular receptor. Various concentrations of the non-labelled test compound were added to the incubation mixture with the membrane fraction, containing the receptor of interest, and a fixed low concentration (nM) of the radioligand. During the incubation the radioligand bound to the receptor, but this was inhibited by the non-labelled test compound in proportion to its binding affinity and concentration.
# (§2) Cell lines were established that stably express the human variant of the receptor under investigation after transfection with the appropriate cDNA (Table 1). Transfected cells were grown under standard culture conditions, and membrane fractions were obtained upon centrifugation and homogenisation of the cells. Optimal membrane dilutions for binding studies were determined and aliquots were stored at −70° C. until use. In a 96-well plate format, the appropriate radioligand was added to the membrane preparation containing the receptor under investigation. Compound solutions were prepared in DMSO, and diluted 100-fold into the multiwell plate to a final test concentration of 10^−9 to 10^−5 M. After incubation with the test compound, the unbound radioligand was removed by filtration on G/F filters with a Filtermate 96. Microscint™ was added to the washed filter plates and the radioactivity bound to the receptor was measured by liquid scintillation counting in a TopCount (Packard). To measure the Non-Specific Binding (NSB), a high concentration of the non-radiolabeled ligand was added to wells containing the membrane fraction and the radioligand.
# (§3) Using in house developed software, a best-fit curve was fitted by a minimum sum of squares method to the plot of % inhibition vs. concentration of the test compound. From this, the pIC50 value (inhibitory concentration causing 50% displacement of specific binding) was determined, as well as an estimate of the slope of the plot (Hill coefficient).
# Alpha2C = biological target: T2, Alpha2C (Homo sapiens, UniProt P18825); assay: Competitive radioligand binding, Alpha2C; conditions: CHO membranes, 3H-rauwolscine 1 nM; for IC50: read-out: pIC50 Alpha2C (converted)
# T2 construct: expressed in transfected cells; host or cells: CHO (membrane fraction)
# T2 sequence (P18825 1-462): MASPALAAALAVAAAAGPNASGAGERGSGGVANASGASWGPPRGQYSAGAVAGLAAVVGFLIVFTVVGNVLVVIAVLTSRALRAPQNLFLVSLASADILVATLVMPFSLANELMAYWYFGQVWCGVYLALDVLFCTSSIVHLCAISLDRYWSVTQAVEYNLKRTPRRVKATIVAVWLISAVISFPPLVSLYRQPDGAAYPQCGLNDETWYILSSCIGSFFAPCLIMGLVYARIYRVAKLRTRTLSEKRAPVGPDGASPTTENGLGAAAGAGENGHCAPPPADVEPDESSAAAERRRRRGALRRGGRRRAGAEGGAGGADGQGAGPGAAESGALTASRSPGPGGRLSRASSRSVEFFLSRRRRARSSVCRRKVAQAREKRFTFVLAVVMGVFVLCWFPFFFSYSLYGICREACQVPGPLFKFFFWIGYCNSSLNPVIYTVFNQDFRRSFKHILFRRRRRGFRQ
# Procedure: as §1, §2
# (§4) From this, the pIC50 value (inhibitory concentration causing 50% displacement of specific binding) was determined, as well as an estimate of the slope of the plot (Hill coefficient).
# Alpha2A = biological target: T3, Alpha2A (Homo sapiens, UniProt P08913); assay: Competitive radioligand binding, Alpha2A; conditions: CHO membranes, 3H-rauwolscine 1 nM; for IC50: read-out: pIC50 Alpha2A (converted)
# T3 construct: expressed in transfected cells; host or cells: CHO (membrane fraction)
# T3 sequence (P08913 1-465): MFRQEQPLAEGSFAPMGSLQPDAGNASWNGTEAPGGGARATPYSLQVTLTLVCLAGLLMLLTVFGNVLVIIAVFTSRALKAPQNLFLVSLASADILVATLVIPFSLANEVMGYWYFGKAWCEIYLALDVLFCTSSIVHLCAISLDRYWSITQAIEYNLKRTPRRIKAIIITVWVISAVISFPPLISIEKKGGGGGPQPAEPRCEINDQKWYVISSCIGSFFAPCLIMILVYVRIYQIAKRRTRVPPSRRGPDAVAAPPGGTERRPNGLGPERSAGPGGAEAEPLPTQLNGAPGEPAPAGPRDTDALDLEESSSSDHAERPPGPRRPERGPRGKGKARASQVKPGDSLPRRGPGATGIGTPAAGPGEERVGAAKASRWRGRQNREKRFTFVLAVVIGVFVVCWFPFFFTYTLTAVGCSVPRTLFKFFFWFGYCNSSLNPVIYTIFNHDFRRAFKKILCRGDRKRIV
# Procedure: as §1, §2
# Alpha1A = biological target: T4, Alpha1A (Homo sapiens, UniProt P35348); assay: Competitive radioligand binding, Alpha1A; conditions: CHO membranes, 3H-prazosin 0.25 nM; read-out: pIC50 Alpha1A (converted)
# T4 construct: expressed in transfected cells; host or cells: CHO (membrane fraction)
# T4 sequence (P35348 1-466): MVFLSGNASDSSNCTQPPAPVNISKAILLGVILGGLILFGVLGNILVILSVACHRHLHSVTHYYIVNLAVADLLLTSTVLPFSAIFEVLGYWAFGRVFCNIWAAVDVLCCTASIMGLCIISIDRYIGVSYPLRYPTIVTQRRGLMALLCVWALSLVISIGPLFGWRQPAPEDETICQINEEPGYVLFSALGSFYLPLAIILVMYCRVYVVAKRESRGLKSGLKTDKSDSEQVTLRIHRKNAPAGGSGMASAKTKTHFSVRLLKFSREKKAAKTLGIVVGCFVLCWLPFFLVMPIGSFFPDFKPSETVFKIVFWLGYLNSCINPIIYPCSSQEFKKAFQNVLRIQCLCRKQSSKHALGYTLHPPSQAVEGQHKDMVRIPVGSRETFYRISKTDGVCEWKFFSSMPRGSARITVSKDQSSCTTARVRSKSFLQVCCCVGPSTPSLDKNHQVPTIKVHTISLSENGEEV
# Procedure: as §1, §2, §3
# D2L = biological target: T5, D2L (Homo sapiens, UniProt P14416); assay: Competitive radioligand binding, D2L; conditions: CHO membranes, 3H-spiperone 0.2 nM; for IC50: read-out: pIC50 D2L (converted)
# T5 construct: expressed in transfected cells; host or cells: CHO (membrane fraction)
# T5 sequence (P14416 whole entry): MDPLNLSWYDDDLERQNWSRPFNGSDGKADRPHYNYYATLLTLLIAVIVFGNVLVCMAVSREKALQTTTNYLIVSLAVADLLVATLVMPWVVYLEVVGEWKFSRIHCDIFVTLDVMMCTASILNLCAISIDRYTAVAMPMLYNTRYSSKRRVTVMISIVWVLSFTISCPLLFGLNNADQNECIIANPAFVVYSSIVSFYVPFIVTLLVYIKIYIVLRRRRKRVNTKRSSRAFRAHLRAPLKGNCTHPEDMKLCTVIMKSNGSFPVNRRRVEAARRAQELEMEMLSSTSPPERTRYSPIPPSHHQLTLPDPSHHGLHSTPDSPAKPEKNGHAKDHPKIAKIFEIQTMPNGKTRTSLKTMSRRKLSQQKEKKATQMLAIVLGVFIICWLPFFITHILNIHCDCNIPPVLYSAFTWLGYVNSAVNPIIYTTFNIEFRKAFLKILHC
# Procedure: as §1, §2, §3
# 5HT4B = biological target: T6, 5HT4B (Homo sapiens, UniProt Q13639); assay: Competitive radioligand binding, 5HT4B; conditions: HEK293 membranes, 3H-GR113808 0.1 nM; for IC50: read-out: pIC50 5HT4B (converted)
# T6 construct: expressed in transfected cells; host or cells: HEK293 (membrane fraction)
# T6 sequence (Q13639 whole entry): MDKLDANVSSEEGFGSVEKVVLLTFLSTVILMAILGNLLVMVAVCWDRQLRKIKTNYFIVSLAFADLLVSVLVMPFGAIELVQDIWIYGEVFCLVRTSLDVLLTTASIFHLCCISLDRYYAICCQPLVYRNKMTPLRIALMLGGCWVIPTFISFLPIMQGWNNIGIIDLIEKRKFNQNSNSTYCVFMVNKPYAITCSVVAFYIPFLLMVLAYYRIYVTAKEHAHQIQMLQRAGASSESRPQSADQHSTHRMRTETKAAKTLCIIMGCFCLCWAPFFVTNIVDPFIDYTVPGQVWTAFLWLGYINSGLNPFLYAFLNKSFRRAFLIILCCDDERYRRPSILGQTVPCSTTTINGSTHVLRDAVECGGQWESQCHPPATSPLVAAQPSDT
# Procedure: as §1, §2, §4
Compound,IC50 (5HT1A) [nM],IC50 (Alpha2C) [nM],IC50 (Alpha2A) [nM],IC50 (Alpha1A) [nM],IC50 (D2L) [nM],IC50 (5HT4B) [nM],pIC50 D2L (D2L),pIC50 Alpha2C (Alpha2C),pIC50 Alpha2A (Alpha2A),pIC50 5HT4B (5HT4B)
"COc1cc(N)c(Cl)cc1C(=O)N[C@@H]1CCN(CCCOc2ccc(F)cc2)C[C@H]1F (racemic) [(±)-7, trans-4-amino-5-chloro-N-{3-fluoro-1-[3-(4-fluorophenoxy)-propyl]-piperidin-4-yl}-2-methoxybenzamide]",1820,955,3630,> 10000,4570,617,–,–,–,–
"COc1cc(N)c(Cl)cc1C(=O)N[C@H]1CCN(CCCOc2ccc(F)cc2)C[C@H]1F (racemic) [(±)-12, cis-4-amino-5-chloro-N-{3-fluoro-1-[3-(4-fluorophenoxy)-propyl]-piperidin-4-yl}-2-methoxybenzamide]",4170,2090,4790,447,4680,115,–,–,–,–
"COc1cc(N)c(Cl)cc1C(=O)NC1CCN(CCCOc2ccc(F)cc2)CC1(F)F (racemic) [(±)-17, 4-amino-5-chloro-N-{3,3-difluoro-1-[3-(4-fluorophenoxy)-propyl]-piperidin-4-yl}-2-methoxybenzamide]",7940,> 10000,> 10000,> 10000,10500,> 10000,–,–,–,–
"COc1cc(N)c(Cl)cc1C(=O)N[C@@H]1CCN(CCCOc2ccc(F)cc2)C[C@H]1F (single isomer, unassigned) [(+)-7, trans-4-amino-5-chloro-N-{3-fluoro-1-[3-(4-fluorophenoxy)-propyl]-piperidin-4-yl}-2-methoxybenzamide]",676,> 10000,> 10000,525,2750,871,–,–,–,–
"COc1cc(N)c(Cl)cc1C(=O)N[C@H]1CCN(CCCOc2ccc(F)cc2)C[C@H]1F (single isomer, unassigned) [(+)-12, cis-4-amino-5-chloro-N-{3-fluoro-1-[3-(4-fluorophenoxy)-propyl]-piperidin-4-yl}-2-methoxybenzamide]",741,1950,–,550,–,126,5.32,–,–,–
"COc1cc(N)c(Cl)cc1C(=O)N[C@@H]1CCN(CCCOc2ccc(F)cc2)C[C@H]1F (single isomer, unassigned) [(−)-7, trans-4-amino-5-chloro-N-{3-fluoro-1-[3-(4-fluorophenoxy)-propyl]-piperidin-4-yl}-2-methoxybenzamide]",1100,1170,7760,398,7940,437,–,–,–,–
"COc1cc(N)c(Cl)cc1C(=O)N[C@H]1CCN(CCCOc2ccc(F)cc2)C[C@H]1F (single isomer, unassigned) [(−)-12, cis-4-amino-5-chloro-N-{3-fluoro-1-[3-(4-fluorophenoxy)-propyl]-piperidin-4-yl}-2-methoxybenzamide]",1860,5890,8130,331,4790,537,–,–,–,–
"COc1cc(N)c(Cl)cc1C(=O)NC1CCN(CCCOc2ccc(F)cc2)CC1(F)F (single isomer, unassigned) [Compound (−)-17, 4-amino-5-chloro-N-{3,3-difluoro-1-[3-(4-fluorophenoxy)-propyl]-piperidin-4-yl}-2-methoxybenzamide]",> 10000,–,–,7760,–,–,<5,<5,<5,<5
"COc1cc(N)c(Cl)cc1C(=O)NC1CCN(CCCOc2ccc(F)cc2)CC1(F)F (single isomer, unassigned; (+)) [(+)-17, 4-amino-5-chloro-N-{3,3-difluoro-1-[3-(4-fluorophenoxy)-propyl]-piperidin-4-yl}-2-methoxybenzamide]",5620,> 10000,> 10000,> 10000,> 10000,> 10000,–,–,–,–
